According to patent publication US20250304571A1, “BIOLOGICALLY ACTIVE COMPOUNDS AND METHODS THEREOF” (Suzhou Keen Therapeutics Co., Ltd., priority 2022, published 2025):
Read-outs that look alike come from different tables or passages of the source.

Columns and labels:
Assay type in all cases: cell-based
[1] = system: HT-1080 (fibrosarcoma) cells; test: Cell viability (CellTiter Glo) assay, inhibition of HT-1080 cell proliferation; details: Homo sapiens, HT-1080 cells, 72 hours
[2] = system: KP4 (pancreatic ductal adenocarcinoma) cells; test: Cell viability (CellTiter Glo) assay, inhibition of KP4 cell proliferation; details: Homo sapiens, KP-4; KP4 cells, 72 hours, CellTiter Glo; read-out: IC50, inhibition of KP4 cell proliferation
[3] = system: 786-O (renal cell carcinoma) cells; test: Cell viability (CellTiter Glo) assay, inhibition of 786-O cell proliferation; details: Homo sapiens, 786-0; 786-O cells, 72 hours, CellTiter Glo; read-out: IC50, inhibition of 786-O cell proliferation
786-O cells = test: Anti-proliferation activity in 786-O cells in the presence of a ferroptosis inhibitor (Ferrostatin-1 or Liproxstatin-1); details: Homo sapiens
Method: In one assessment, cells (KP4, 786-0 and HT-1080) were seeded (700 cells/well, 1000 cells/well or 3000 cells/well) in 384-well or 96-well plates and incubated at 37° C./5% CO2 for 22-24 hours. A series of 8 different concentrations of compound stocks were created by 5-fold serial dilution in DMSO. These compounds were further diluted in culture media and were then added to cells (final concentrations: 100 μM, 20 μM, 4 μM, 0.8 μM, 0.16 μM, […].). After 72 hours of incubation, 30 μL of CellTiter Glo reagent (Promega) was added to each well and luminescence was measured after 10 minutes using SpectraMax M5/M5e (Molecular Devices). Luminescence from cells treated with DMSO alone was set as background and % of inhibition was calculated as follows: […]
Anti-proliferation activity of various compounds was also tested in the presence of an ferroptosis inhibitor, Ferrostatin-1 (2 μM) or Liproxstatin-1 (2 μM). Certain results are provided in Table 4 and Table 5 as examples. “A” indicates an IC50≤100 nM; “B” indicates an IC50 of >100 nM and ≤500 nM; “C” indicates an IC50>500 nM and ≤5 μM; and “D” indicates an IC50>5 μM.

[4] = 786-0, 72 h, no ferroptosis inhibitor, read-out: IC50, No Ferroptosis Inhibitor (Table 5)

Compound | IC50 [1] [nM] | IC50 [2] [nM] | IC50 [3] [nM] | IC50 (786-O cells; 786-0, Ferrostatin-1 (2 μM), read-out: IC50, With Ferrostatin-1) [nM] | IC50 (786-O cells; 786-0, no ferroptosis inhibitor, read-out: IC50, No Ferroptosis Inhibitor (Table 4)) [nM] | IC50 (786-O cells; [4]) [nM]
C[C@@H]1CN(C(=N)OCc2nc(Nc3ccc(Oc4ccccc4)cc3)c3cc[nH]c3n2)C[C@H](C)N1C(=O)OC(C)(C)C [Compound D2] | 100 to 500 | < 100 |  |  |  | 
CN(C)C(=N)OCc1nc(Nc2ccc(Oc3ccccc3)cc2)c2cc[nH]c2n1 [Compound D3] | 500 to 5000 | 500 to 5000 | 500 to 5000 |  |  | 
N=C(OCc1nc(Nc2ccc(Oc3ccccc3)cc2)c2cc[nH]c2n1)N1CCC(F)(F)CC1 [Compound D6] |  | 100 to 500 | 100 to 500 | > 5000 | 100 to 500 | 
CC1(C)CN(c2ccc(Oc3ccccc3)cc2)c2nc(COC(=N)N3CCCCC3C(F)(F)F)nc(N)c21 (centres unmarked) [Compound E4] | < 100 |  | < 100 |  |  | 
CCN1CCN(C(=N)OCc2nc(N)c3c(n2)N(c2ccc(Oc4ccccc4)cc2)CC3(C)C)C2(CC2)C1=O [Compound E5] | 100 to 500 |  | 100 to 500 |  |  | 
C[C@@H]1CN(c2ncc(N3C(=O)C4(CCCC4)c4c(N)nc(COC(=N)N5CCC[C@@H]5C(F)(F)F)nc43)cn2)C[C@H](C)O1 [Compound E87, (4′-amino-7′-(2-((2S,6R)-2,6-dimethylmorpholino)pyrimidin-5-yl)-6′-oxo-6′,7′-dihydrospiro[cyclopentane-1,5′-pyrrolo[2,3-d]pyrimidin]-2′-yl)methyl (R)-2-(trifluoromethyl)pyrrolidine-1-carbimidate] |  |  | < 100 |  |  | < 100
CNc1nc(COC(=N)N2CCC[C@@H]2C(F)(F)F)nc2c1C1(CCCC1)C(=O)N2c1cnc(N2C[C@@H](C)O[C@@H](C)C2)nc1 [Compound E88, (7′-{2-[(2R,6S)-2,6-dimethylmorpholin-4-yl]pyrimidin-5-yl}-4′-(methylamino)-6′-oxo-6′,7′-dihydrospiro[cyclopentane-1,5′-pyrrolo[2,3-d]pyrimidin]-2′-yl)methyl (2R)-2-(trifluoromethyl)pyrrolidine-1-carboximidate] |  |  | < 100 |  |  | < 100
N=C(OCc1nc(N)c2c(n1)N(c1cnc(N3C4CCC3COC4)nc1)C(=O)C21CCCC1)N1CCC[C@@H]1C(F)(F)F [Compound E93] |  |  | < 100 |  |  | < 100
CNc1nc(COC(=N)N2CCC[C@@H]2C(F)(F)F)nc2c1C1(CCCC1)C(=O)N2c1cnc(N2C3CCC2COC3)nc1 [Compound E94] |  |  | < 100 |  |  | < 100
CNc1nc(COC(=N)N2CCOCC2C(F)(F)F)nc2c1C1(CCCC1)C(=O)N2c1cnc(N2C[C@@H](C)O[C@@H](C)C2)nc1 (some centres unmarked) [Compound E97] |  |  | 100 to 500 |  |  | 100 to 500
CNc1nc(COC(=N)N2CCC[C@@H]2C(F)(F)F)nc2c1C1(CCCC1)C(=O)N2c1cnc(C2CCOCC2)nc1 [Compound E99] |  |  | 500 to 5000 |  |  | 500 to 5000
N=C(OCc1nc(N)c2c(n1)N(c1cnc(C3CCOCC3)nc1)C(=O)C21CCCC1)N1CCC[C@@H]1C(F)(F)F [Compound E100, (4′-amino-6′-oxo-7′-(2-(tetrahydro-2H-pyran-4-yl)pyrimidin-5-yl)-6′,7′-dihydrospiro[cyclopentane-1,5′-pyrrolo[2,3-d]pyrimidin]-2′-yl)methyl (R)-2-(trifluoromethyl)pyrrolidine-1-carbimidate] |  |  | 100 to 500 |  |  | 100 to 500
N=C(NC1CCCCC1)OCc1nc(N)nc(Nc2ccc(Oc3ccccc3)cc2)n1 [Compound F9] | 100 to 500 | 100 to 500 | < 100 |  |  | 
N=C(OCc1nc(N)nc(Nc2ccc(Oc3ccccc3)cc2)n1)N1CCCCC1C(F)(F)F (centres unmarked) [Compound F12] |  |  | < 100 |  |  | < 100
N=C(OCc1nc(N)nc(Nc2ccc(Oc3ccccc3)cc2)n1)N1CCCCC1=O [Compound F18] | 500 to 5000 |  |  |  |  | 
C#CCOc1cccc(Oc2ccc(Nc3nc(N)nc(COC(=N)N4CCC(F)(F)CC4)n3)cc2)c1 [Compound F21] |  |  | < 100 |  |  | < 100
CN(C)C(=N)OCc1nc(N)nc(Nc2ccc(Oc3ccccc3)cc2)n1 [Compound F31] | 100 to 500 | 100 to 500 | 100 to 500 |  |  | 
